Some targets named below: Moubatin (Ornithodoros moubata, UniProt Q04669); TSGP2_R85G (Ornithodoros kalahariensis, UniProt Q8I9U1, R104G); TSGP3_G85R (Ornithodoros kalahariensis, UniProt Q8I9U0, G104R); T2_ML (Ornithodoros kalahariensis, UniProt Q8I9U1, A132G/E131N/E136D/G133S/G134A/L130S/L135D/M127Q/M129Q/V137K); T2_M4 (Ornithodoros kalahariensis, UniProt Q8I9U1, K92N/T101K/T85M/T94V); T2_H95D (Ornithodoros kalahariensis, UniProt Q8I9U1, H114D).

Common to all, as to test: Isothermal titration calorimetry
Type in all cases: binding

In a further test the target is T1, TSGP2 (Ornithodoros kalahariensis, UniProt Q8I9U1).
T1 sequence (Q8I9U1 20-163): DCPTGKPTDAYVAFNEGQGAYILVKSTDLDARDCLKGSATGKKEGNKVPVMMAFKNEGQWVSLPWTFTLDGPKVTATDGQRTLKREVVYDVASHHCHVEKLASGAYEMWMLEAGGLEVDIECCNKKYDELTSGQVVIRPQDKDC

The next test addresses T2, TSGP3 (Ornithodoros kalahariensis, UniProt Q8I9U0).
T2 sequence (Q8I9U0 20-163): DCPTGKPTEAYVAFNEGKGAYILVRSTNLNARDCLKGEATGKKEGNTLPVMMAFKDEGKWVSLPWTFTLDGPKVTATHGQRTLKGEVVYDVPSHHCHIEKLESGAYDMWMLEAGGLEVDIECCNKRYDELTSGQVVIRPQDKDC

The target in the next test is T3, Moubatin-like 3 (Ornithodoros parkeri, UniProt A6N9T1).
T3 sequence (A6N9T1 20-176): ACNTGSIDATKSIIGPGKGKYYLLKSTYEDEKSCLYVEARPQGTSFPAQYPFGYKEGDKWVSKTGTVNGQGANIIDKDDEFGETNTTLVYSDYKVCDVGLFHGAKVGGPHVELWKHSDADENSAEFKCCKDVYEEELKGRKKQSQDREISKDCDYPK

In paper PMC2613973 (Insect biochemistry and molecular biology, 2008) one finds Kd data, which are given here for six compounds.

Consider `CCCCC/C=C\C/C=C\C/C=C\C/C=C\CCCC(=O)O` [Arachidonic acid, arachidonic acid (AA)], for which the Kd on Moubatin is 34 ± 6 nM; on TSGP2, 69 ± 7 nM; on TSGP3, 59 ± 24 nM.

As for `NCCc1c[nH]c2ccc(O)cc12` [Serotonin, serotonin (5-hydroxytryptamine, 5-HT)], at Moubatin-like 3, binding was characterised by a dissociation constant (Kd) of 116 ± 13 nM.

For the compound `CCCCC[C@H](O)/C=C/[C@@H]1[C@@H](C/C=C\CCCC(=O)O)[C@H]2CO[C@@H]1C2` [U46619, 9,11-dideoxy-9α,11α-methanoepoxy prostaglandin F2α (stable thromboxane A2 analog)], the Kd at Moubatin stood at 20 ± 3 nM; at TSGP3 it was 9 ± 1 nM; on TSGP2_R85G it was 7 ± 1 nM.

For `CCCCC/C=C\C[C@@H](O)/C=C/C=C/C=C\[C@@H](O)CCCC(=O)O` [LTB4, leukotriene B4], the Kd on Moubatin came to 16 ± 3 nM; at TSGP2, 18 ± 3 nM; at TSGP3, 21 ± 5 nM; on TSGP2_R85G, 10 ± 1.6 nM; at TSGP3_G85R, 228 ± 36 nM; at T2_ML, 12 ± 2 nM. The Kd on T2_M4 was determined as 6 ± 0.8 nM; on T2_H95D, 12 ± 2 nM.

With `CCCCC[C@H](O)/C=C/C1CC2CC(C2)C1C/C=C\CCCC(=O)O` (stereo partly drawn) [cTXA2, carbocyclic thromboxane A2], the Kd on Moubatin stood at 24 ± 4 nM; on TSGP3 it was 5 ± 0.7 nM.

Regarding `NCCc1c[nH]cn1` [Histamine, histamine], at Moubatin-like 3, the equilibrium dissociation constant (Kd) was 106 ± 3 nM.
